“And” between values parts separate entries of the source, which are not always exact repeats. Equal values may be shown once.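 1) Cells in 96-well plates. 2) Compound, 48 h, 5 concentrations. 3) Linear interpolation between surrounding doses. 4) Unreached endpoint = highest concentration. GI50: concentration for 50% inhibition of growth. TGI denotes the concentration required for complete inhibition of growth.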

The subject of one assay is SK-MEL-2 melanoma. The assay can be described thus: DTP human tumour cell line panel, 48 h.
In general, TGI refers to the concentration giving total growth inhibition. Lower therefore signals more potent growth arrest. `N#C/C(=C\NC(=S)Nc1ccc(S(=O)(=O)Nc2ccccn2)cc1)C(N)=O` displayed a TGI greater than 100 µM.
`CC(=O)NC1C(OCc2ccccc2)OC(CO)C(O)C1OCC(=O)N[C@@H](C)C(=O)N[C@H](CCC(=O)NCCNCCNc1c2ccccc2nc2cccc([N+](=O)[O-])c12)C(N)=O` (stereo partly specified) gave a total growth inhibition concentration (TGI) of 46.5 µM.
For the compound `c1cc2nnc1SCCSCCSc1ccc(nn1)SCCSCCS2`, the concentration for total growth inhibition (TGI) is greater than 100 µM.
Broadly, the GI50 is the concentration giving 50% growth inhibition. Regarding `COc1ccc(-c2c(C#N)c(S)n(C3OC(COC(C)=O)C(OC(C)=O)C(OC(C)=O)C3OC(C)=O)c(=O)c2C#N)cc1` (stereo unspecified), the GI50 is 91.5 µM and 20 µM; the TGI is > 100 µM and 36.1 µM.

The subject of another assay is KM12 colon. Nature of the assay: DTP human tumour cell line panel, 48 h.
In turn, `CCC(=O)C(c1ccccc1)c1ccccn1` (stereo unspecified) showed a total growth inhibition concentration (TGI) greater than 100 µM.
Turning to `CCCN=C1CC(C)Nc2ccccc2N1` (stereo unspecified), the TGI was greater than 100 µM.
For `Cc1ccc(-c2cc(N)n(-c3nc4c([nH]3)c(=O)n(C)c(=O)n4C)n2)cc1`, the TGI was 38.9 µM.
Still for that read-out and setting: under `Cc1sc2nc3n(c(=O)c2c1C)N=CN(c1ccccc1)C3` stands greater than 100 µM.
Take `COC1O[C@H]2CCN(C(=O)OCc3ccccc3)[C@H]2[C@H]1OCc1ccccc1` (stereo partly specified): the TGI was greater than 100 µM.
`COc1ccc(N2C(=O)C3c4[nH]c5ccc([N+](=O)[O-])cc5c4C4CCC(C(C)(C)C)CC4C3C2=O)cc1` (stereo unspecified) came in with a TGI greater than 100 µM.
The same measure, in the same setting: under `O=C(O)c1ccc(NC(c2ccccc2)c2ccc3cccnc3c2O)cc1` (stereo unspecified) stands greater than 100 µM.
For the compound `COc1ccc(-c2c(C#N)c(N)n(C3OC(CO)C(O)C(O)C3O)c(=S)c2C#N)cc1` (stereo unspecified), the total growth inhibition concentration (TGI) was greater than 100 µM.
Same read-out and setting: under `CCOC(=O)c1sc2nc(SC)nc3c2c1N=CN3c1ccc(Br)cc1` stands greater than 100 µM.
The compound `Cc1c(Cl)cccc1NC(=O)C(=O)C1C(=O)CC(C)(C)CC1=O` yielded a total growth inhibition concentration (TGI) greater than 100 µM.
As for `O=c1[nH]c2nc3ccccc3c(=O)n2/c1=C/c1ccc(O)cc1`, the TGI is greater than 100 µM.
On the same count and under the same terms, under `CC[C@@H]1CC[C@@H]2[C@H](CC[C@]3(C)[C@@H](O)CC[C@@H]23)[C@H]1C(=O)O` stands greater than 100 µM.
In the case of `Nc1nc(Cl)cc(NCC2(CO)CC(CCc3ccccc3)C2)n1` (stereo unspecified), the TGI is greater than 100 µM.
On to `O=c1c2ccccc2[nH]c(=S)n1-c1ccc(N=Nc2cccc3c(O)cccc23)cc1`, for which the TGI was greater than 100 µM.
`N#C/C(=C\NC(=S)Nc1ccc(S(=O)(=O)Nc2ccccn2)cc1)C(N)=O` came in with a total growth inhibition concentration (TGI) greater than 100 µM.
Same read-out and setting: under `CC(=O)NC1C(OCc2ccccc2)OC(CO)C(O)C1OCC(=O)N[C@@H](C)C(=O)N[C@H](CCC(=O)NCCNCCNc1c2ccccc2nc2cccc([N+](=O)[O-])c12)C(N)=O` (stereo partly specified) stands 78.5 µM; under `c1cc2nnc1SCCSCCSc1ccc(nn1)SCCSCCS2`, greater than 100 µM; under `COc1ccc(-c2c(C#N)c(S)n(C3OC(COC(C)=O)C(OC(C)=O)C(OC(C)=O)C3OC(C)=O)c(=O)c2C#N)cc1` (stereo unspecified), greater than 100 µM.

The next assay concerns CCRF-CEM leukemia. The assay can be described thus: DTP human tumour cell line panel, 48 h.
As for `CCC(=O)C(c1ccccc1)c1ccccn1` (stereo unspecified), the TGI is greater than 100 µM.
Still for that read-out and setting: under `CCCN=C1CC(C)Nc2ccccc2N1` (stereo unspecified) stands greater than 100 µM.
For the compound `Cc1ccc(-c2cc(N)n(-c3nc4c([nH]3)c(=O)n(C)c(=O)n4C)n2)cc1`, the TGI was greater than 100 µM.
`Cc1sc2nc3n(c(=O)c2c1C)N=CN(c1ccccc1)C3` came in with a TGI greater than 100 µM.
In turn, `COC1O[C@H]2CCN(C(=O)OCc3ccccc3)[C@H]2[C@H]1OCc1ccccc1` (stereo partly specified) yielded a total growth inhibition concentration (TGI) greater than 100 µM.
For the compound `COc1ccc(N2C(=O)C3c4[nH]c5ccc([N+](=O)[O-])cc5c4C4CCC(C(C)(C)C)CC4C3C2=O)cc1` (stereo unspecified), the total growth inhibition concentration (TGI) is greater than 100 µM.
Compound `O=C(O)c1ccc(NC(c2ccccc2)c2ccc3cccnc3c2O)cc1` (stereo unspecified) yielded a TGI of 6.05 µM.
`COc1ccc(-c2c(C#N)c(N)n(C3OC(CO)C(O)C(O)C3O)c(=S)c2C#N)cc1` (stereo unspecified) yielded a TGI greater than 100 µM.
The same measure, in the same setting: under `CCOC(=O)c1sc2nc(SC)nc3c2c1N=CN3c1ccc(Br)cc1` stands greater than 100 µM.
On the same count and under the same terms, under `Cc1c(Cl)cccc1NC(=O)C(=O)C1C(=O)CC(C)(C)CC1=O` stands greater than 100 µM; under `O=c1[nH]c2nc3ccccc3c(=O)n2/c1=C/c1ccc(O)cc1`, greater than 100 µM.
The compound `CC[C@@H]1CC[C@@H]2[C@H](CC[C@]3(C)[C@@H](O)CC[C@@H]23)[C@H]1C(=O)O` gave a TGI greater than 100 µM.
In the case of `Nc1nc(Cl)cc(NCC2(CO)CC(CCc3ccccc3)C2)n1` (stereo unspecified), the TGI is greater than 100 µM.
For `O=c1c2ccccc2[nH]c(=S)n1-c1ccc(N=Nc2cccc3c(O)cccc23)cc1`, the total growth inhibition concentration (TGI) was greater than 100 µM.
As for `N#C/C(=C\NC(=S)Nc1ccc(S(=O)(=O)Nc2ccccn2)cc1)C(N)=O`, the TGI was greater than 100 µM.
The compound `CC(=O)NC1C(OCc2ccccc2)OC(CO)C(O)C1OCC(=O)N[C@@H](C)C(=O)N[C@H](CCC(=O)NCCNCCNc1c2ccccc2nc2cccc([N+](=O)[O-])c12)C(N)=O` (stereo partly specified) returned a TGI greater than 100 µM.
In turn, `c1cc2nnc1SCCSCCSc1ccc(nn1)SCCSCCS2` had a TGI greater than 100 µM.
As for `COc1ccc(-c2c(C#N)c(S)n(C3OC(COC(C)=O)C(OC(C)=O)C(OC(C)=O)C3OC(C)=O)c(=O)c2C#N)cc1` (stereo unspecified), the total growth inhibition concentration (TGI) is greater than 100 µM.

In a further assay the test system is HT29 colon. Nature of the assay: DTP human tumour cell line panel, 48 h.
Consider `CCC(=O)C(c1ccccc1)c1ccccn1` (stereo unspecified), for which the TGI is greater than 100 µM.
Take `CCCN=C1CC(C)Nc2ccccc2N1` (stereo unspecified): the TGI was greater than 100 µM.
The compound `Cc1ccc(-c2cc(N)n(-c3nc4c([nH]3)c(=O)n(C)c(=O)n4C)n2)cc1` registered a TGI greater than 100 µM.
With `Cc1sc2nc3n(c(=O)c2c1C)N=CN(c1ccccc1)C3`, the TGI was greater than 100 µM.
`COC1O[C@H]2CCN(C(=O)OCc3ccccc3)[C@H]2[C@H]1OCc1ccccc1` (stereo partly specified) displayed a TGI greater than 100 µM.
`COc1ccc(N2C(=O)C3c4[nH]c5ccc([N+](=O)[O-])cc5c4C4CCC(C(C)(C)C)CC4C3C2=O)cc1` (stereo unspecified): the TGI stood at 20.1 µM.
For `O=C(O)c1ccc(NC(c2ccccc2)c2ccc3cccnc3c2O)cc1` (stereo unspecified), the TGI is greater than 100 µM.
As for `COc1ccc(-c2c(C#N)c(N)n(C3OC(CO)C(O)C(O)C3O)c(=S)c2C#N)cc1` (stereo unspecified), the TGI is greater than 100 µM.
On to `CCOC(=O)c1sc2nc(SC)nc3c2c1N=CN3c1ccc(Br)cc1`, for which the TGI is greater than 100 µM.
`Cc1c(Cl)cccc1NC(=O)C(=O)C1C(=O)CC(C)(C)CC1=O` came in with a total growth inhibition concentration (TGI) greater than 100 µM.

These data come from PubChem BioAssay (NCI).
